Laboratory results from US9107415B2, “2-(substituted-phenyl)-cyclopentane-1,3-dione compounds, and derivatives thereof” (Syngenta Limited, priority 2011, dated 2015).
Where two headings read alike, the source gives them in different places.

Key:
Assay type in all cases: in vivo
[1] = system: Alopecurus myosuroides, blackgrass (ALOMY); test: Biological Example 3 glasshouse screen, post-emergence herbicidal activity; conditions: 360 h, read-out: ALOMY percentage phytotoxicity; for pest or weed control at 60 g/ha: application rate 60 g/ha
Description: (§1) Test Method: Seeds of a variety of test species are sown in standard soil in pots. After cultivation for one day (pre-emergence) or after 12 days cultivation (post-emergence) under controlled conditions in a glasshouse (warm climate species at 24/18°C., cool climate species at 20/16°C., both at day/night; 16 hours light; 65% humidity), the plants are sprayed with an aqueous spray solution derived from the formulation of the “technical”(i.e. unformulated) active ingredient dissolved in acetone plus IF50, at a 1:20 ratio of “technical”active ingredient to IF50. The IF50 contains about 10.56 weight % Emulsogen EL™(castor oil ethoxylate, CAS Registry number 61791-12-6), about 42.22 weight % N-methylpyrrolidone, and about 42.22 weight % DPG-Monoethyl ether (dipropylene glycol mono-ethyl ether). The adjuvant X-77 (a mixture of alkyl aryl polyoxyethylene glycols and free fatty acids in isopropanol, CAS Registry number 11097-66-8) is added to the aqueous spray solution to form a 0.2% v/v solution, before spraying onto the plants.
(§2) The test plants are then grown in a glasshouse under controlled conditions in a glasshouse (at 24/18°C. or 20/16°C., day/night; 16 hours light; 65% humidity) and watered twice daily. After 15 days after application of the herbicide (15 DAA) (for post-emergence), and after 20 DAA (for pre-emergence), the test is evaluated visually, and an assessed percentage phytotoxicity score is given for each herbicidal application on each plant/weed species (with 100%=total damage to plant; 0%=no damage to plant). […]

[2] = system: Avena fatua, wild oats (AVEFA); test: as above; conditions: 360 h, read-out: AVEFA percentage phytotoxicity; for pest or weed control at 60 g/ha: application rate 60 g/ha
Description: as §1, §2

[3] = system: Lolium perenne, perennial ryegrass (LOLPE); test: as above; conditions: 360 h, read-out: LOLPE percentage phytotoxicity; for pest or weed control at 60 g/ha: application rate 60 g/ha
Description: as §1, §2

[4] = system: Echinochloa crus galli, barnyardgrass (ECHCG); test: as above; conditions: 360 h, read-out: ECHCG percentage phytotoxicity; for pest or weed control at 60 g/ha: application rate 60 g/ha
Description: as §1, §2

Avena fatua (AVEFA) [5] = test: Biological Example 2 post-emergence herbicidal activity (comparative data)
Description: (§3) Seeds of a variety of test species were sown in standard soil in pots. After cultivation for one day (pre-emergence) or after 8 days cultivation (post-emergence) under controlled conditions in a glasshouse (at 24/16°C., day/night; 14 hours light; 65% humidity), the plants were sprayed with an aqueous spray solution derived from the formulation of the “technical”(i.e. unformulated) active ingredient in acetone/water (50:50) solution containing 0.5% Tween 20 (polyoxyethylene sorbitan monolaurate, CAS Registry Number 9005-64-5). The test plants were then grown in a glasshouse under controlled conditions in a glasshouse (at 24/16°C., day/night; 14 hours light; 65% humidity) and watered twice daily. After 13 days for pre- or post-emergence, the test was evaluated visually, and an assessed percentage phytotoxicity score given for each herbicidal application on each plant/weed species (with 100%=total damage to plant; 0%=no damage to plant).
(§4) Comparative herbicidal data are given for certain exemplified compounds with 4-(prop-1-ynyl)-2,6-dimethylphenyl or 4-(chloroethynyl)-2,6-dimethylphenyl headgroups, compared to the corresponding comparative compounds with 4-ethynyl-2,6-dimethylphenyl headgroups, as follows.
(§5) Except where specified otherwise, the glasshouse screen for herbicidal activity is substantially the same as that presented in Biological Example 1 hereinabove. The weed abbreviations are as defined in Biological Example 1.

[6] = system: Alopecurus myosuroides (ALOMY); test: as above; conditions: 312 h, read-out: ALOMY percentage phytotoxicity
Description: as §3, §4, §5

Lolium perenne (LOLPE) [7] = test: as above
Description: as §3, §4, §5

[8] = system: Echinochloa crus-galli (ECHCG); test: as above; conditions: 312 h, read-out: ECHCG percentage phytotoxicity
Description: as §3, §4, §5

[9] = system: Triticum aestivum, wheat (TRZAW); test: Biological Example 3 glasshouse screen, post-emergence, phytotoxicity on wheat; conditions: 360 h, read-out: TRZAW percentage phytotoxicity; for pest or weed control at 60 g/ha: application rate 60 g/ha
Description: as §1
The test plants are then grown in a glasshouse under controlled conditions in a glasshouse (at 24/18°C. or 20/16°C., day/night; 16 hours light; 65% humidity) and watered twice daily. After 15 days after application of the herbicide (15 DAA) (for post-emergence), and after 20 DAA (for pre-emergence), the test is evaluated visually, and an assessed percentage phytotoxicity score is given for each herbicidal application on each plant/weed species (with 100%=total damage to plant; 0%=no damage to plant).
These give an approximate indication of the level of selectivity on wheat for these tested compounds, when a herbicide safener such as cloquintocet-mexyl is not used: […]

[10] = system: Alopecurus myosuroides (ALOMY); test: Biological Example 1 glasshouse screen, post-emergence herbicidal activity; conditions: 312 h, read-out: ALOMY percentage phytotoxicity
Description: as §3
(§6) Test plants: Alopecurus myosuroides (ALOMY), Setaria faberi (SETFA), Echinochloa crus-galli (ECHCG), Solanum nigrum (SOLNI), Amaranthus retroflexus (AMARE) and Ipomoea hederacea (IPOHE). ALOMY, SETFA and ECHCG are grassy monocotyledonous weeds. SOLNI, AMARE and IPOHE are dicotyledonous (broadleaved) weeds.
(§7) Test plants: Lolium perenne (LOLPE), Alopecurus myosuroides (ALOMY), Echinochloa crus-galli (ECHCG), and Avena fatua (AVEFA). All four of these are grassy monocotyledonous weeds.

[11] = system: Echinochloa crus-galli (ECHCG); test: as above; conditions: 312 h, read-out: ECHCG percentage phytotoxicity
Description: as §3, §6, §7

Avena fatua (AVEFA) [12] = test: as above; conditions: 312 h, read-out: AVEFA percentage phytotoxicity
Description: as §3, §7

Lolium perenne (LOLPE) [13] = test: as above; conditions: 312 h, read-out: LOLPE percentage phytotoxicity
Description: as §3, §7

[14] = system: Alopecurus myosuroides (ALOMY); test: Biological Example 1 glasshouse screen, pre-emergence herbicidal activity; conditions: 312 h, read-out: ALOMY percentage phytotoxicity
Description: as §3, §6, §7

[15] = system: Echinochloa crus-galli (ECHCG); test: as above; conditions: 312 h, read-out: ECHCG percentage phytotoxicity
Description: as §3, §6, §7

Avena fatua (AVEFA) [16] = test: as above; conditions: 312 h, read-out: AVEFA percentage phytotoxicity
Description: as §3, §7

Lolium perenne (LOLPE) [17] = test: as above; conditions: 312 h, read-out: LOLPE percentage phytotoxicity
Description: as §3, §7

Setaria faberi (SETFA) = test: Biological Example 2 post-emergence herbicidal activity (comparative data)
Description: as §3, §4, §5

[18] = application rate 30 g/ha, 15 DAA, no safener
[19] = application rate 250 g/ha, evaluated after 13 days

Row | SMILES | AVEFA percentage phytotoxicity (Avena fatua (AVEFA) [5]; 15.625 g/ha application rate) | AVEFA percentage phytotoxicity (Avena fatua (AVEFA) [5]; 62.5 g/ha application rate) | LOLPE percentage phytotoxicity (Lolium perenne (LOLPE) [7]; 15.625 g/ha application rate) | LOLPE percentage phytotoxicity (Lolium perenne (LOLPE) [7]; 62.5 g/ha application rate) | pest or weed control at 60 g/ha ([1]; 15 DAA, no safener) | pest or weed control at 60 g/ha ([2]; 15 DAA, no safener) | pest or weed control at 60 g/ha ([3]; 15 DAA, no safener) | pest or weed control at 60 g/ha ([4]; 15 DAA, no safener) | pest or weed control at 60 g/ha ([9]; 15 DAA, no safener) | pest or weed control at 250 g/ha [10, 19] | pest or weed control at 250 g/ha [11, 19] | pest or weed control at 250 g/ha (Avena fatua (AVEFA) [12]; [19]) | pest or weed control at 250 g/ha (Lolium perenne (LOLPE) [13]; [19]) | pest or weed control at 250 g/ha [14, 19] | pest or weed control at 250 g/ha [15, 19] | pest or weed control at 250 g/ha (Avena fatua (AVEFA) [16]; [19]) | pest or weed control at 15.625 g/ha ([6]; 15.625 g/ha application rate) | pest or weed control at 62.5 g/ha ([6]; 62.5 g/ha application rate) | pest or weed control at 15.625 g/ha ([8]; 15.625 g/ha application rate) | pest or weed control at 62.5 g/ha ([8]; 62.5 g/ha application rate) | further results
1 | CC#Cc1cc(C)c(C2=C(O)CC(Cc3ccccn3)C2=O)c(C)c1 (racemic) [Compound A-2, rac-2-(2,6-Dimethyl-4-prop-1-ynylphenyl)-4-(pyridin-2-ylmethyl)cyclopentane-1,3-dione] | 80% | 90% | 100% | 100% |  |  |  |  |  |  |  |  |  |  |  |  |  |  |  |  | pest or weed control at 30 g/ha [1]: 90%; pest or weed control at 30 g/ha [2]: 70%; pest or weed control at 30 g/ha [3]: 90%; pest or weed control at 30 g/ha [4]: 100%; pest or weed control at 15.625 g/ha [6]: 90%; pest or weed control at 62.5 g/ha [6]: 100%; pest or weed control at 15.625 g/ha [8]: 100%; pest or weed control at 62.5 g/ha [8]: 100%; plant injury at 30 g/ha [9]: 30%; pest or weed control at 250 g/ha [10]: 100%; pest or weed control at 250 g/ha [11]: 100%; pest or weed control at 250 g/ha (Avena fatua (AVEFA) [12]): 100%; pest or weed control at 250 g/ha (Lolium perenne (LOLPE) [13]): 100%; pest or weed control at 250 g/ha [14]: 100%; pest or weed control at 250 g/ha [15]: 100%; pest or weed control at 250 g/ha (Avena fatua (AVEFA) [16]): 70%; pest or weed control at 250 g/ha (Lolium perenne (LOLPE) [17]): 100%
2 | CC#Cc1cc(C)c(C2=C(O)CC(Cc3cccc(C)n3)C2=O)c(C)c1 (stereo not drawn) [Compound A-9] |  |  |  |  | 80% | 30% | 100% | 100% | 30% | 90% | 100% | 100% | 100% | 100% | 100% | 100% |  |  |  |  | pest or weed control at 30 g/ha [1, 18]: 70%; pest or weed control at 30 g/ha [2, 18]: 30%; pest or weed control at 30 g/ha [3, 18]: 50%; pest or weed control at 30 g/ha [4, 18]: 70%; pest or weed control at 30 g/ha [9, 18]: 20%; pest or weed control at 250 g/ha (Lolium perenne (LOLPE) [17]; [19]): 100%
3 | CC#Cc1cc(C)c(C2=C(O)CC(Cc3cccnc3)C2=O)c(C)c1 (stereo not drawn) [Compound A-10] |  |  |  |  | 80% | 50% | 40% | 80% | 50% | 90% | 100% | 90% | 100% | 80% | 100% | 90% |  |  |  |  | pest or weed control at 250 g/ha (Lolium perenne (LOLPE) [17]; [19]): 100%
4 | CC#Cc1cc(C)c(C2=C(O)CC(Cc3cccnc3C#CC)C2=O)c(C)c1 (stereo not drawn) [Compound A-15] |  |  |  |  | 50% | 80% | 40% | 80% | 30% | 90% | 100% | 100% | 100% | 90% | 100% | 70% |  |  |  |  | pest or weed control at 250 g/ha (Lolium perenne (LOLPE) [17]; [19]): 100%
5 | C#Cc1cc(C)c(C2=C(O)CC(Cc3ccccn3)C2=O)c(C)c1 (stereo not drawn) [X-1, reference compound] | 50% | 90% | 60% | 100% |  |  |  |  |  |  |  |  |  |  |  |  | 60% | 100% | 70% | 80% | 
6 | C#Cc1cc(C)c(C2=C(O)CC(CC3CCOCC3)C2=O)c(C)c1 (stereo not drawn) [X-2, reference compound] | 90% | 90% | 80% | 90% |  |  |  |  |  |  |  |  |  |  |  |  | 60% | 90% | 70% | 90% | 
7 | C#Cc1cc(C)c(C2C(=O)CCC2=O)c(C)c1 [X-3, reference compound] |  |  |  |  |  |  |  |  |  |  |  |  |  |  |  |  | 0% | 0% | 0% | 20% | SETFA percentage phytotoxicity (Setaria faberi (SETFA); 15.625 g/ha application rate): 0%; SETFA percentage phytotoxicity (Setaria faberi (SETFA); 62.5 g/ha application rate): 0%
8 | C#Cc1cc(C)c(C2C(=O)C3C(C2=O)[C@H]2CC[C@@H]3O2)c(C)c1 (stereo partly drawn) [X-4, reference compound] |  |  |  |  |  |  |  |  |  |  |  |  |  |  |  |  | 30% | 80% | 80% | 80% | SETFA percentage phytotoxicity (Setaria faberi (SETFA); 15.625 g/ha application rate): 40%; SETFA percentage phytotoxicity (Setaria faberi (SETFA); 62.5 g/ha application rate): 40%
